Assay results reported in patent US7528150B2, “Urea derivatives having vanilloid receptor antagonist activity” (Glaxo Group Limited, priority 2003, dated 2009).

target: T1, human VR1 (Homo sapiens, UniProt Q8NER1); experiment: FLIPR based calcium assay, antagonism of capsaicin response in 1321N1 cells stably expressing human VR1; format: cell-based; settings: transfected astrocytoma 1321N1 cells expressing human VR1; capsaicin as agonist; pKb generated from IC50 using the Cheng-Prusoff equation
T1 construct: expressed in transfected cells; host or cells: astrocytoma 1321N1 cells, stably transfected
Experimental: The screen used for the compounds of this invention was based upon a FLIPR based calcium assay, similar to that described by Smart et al. (British Journal of Pharmacology, 2000, 129, 227-230). Transfected astrocytoma 1321N1 cells, stably expressing human VR1, were seeded into FLIPR plates at 25,000 cells/well (96-well plate) and cultured overnight.
The cells were subsequently loaded in medium containing 4 μM Fluo-3 AM (Molecular Probes) for 2 h, at room temperature, in the dark. The plates were then washed 4 times with Tyrode containing 1.5 mM calcium, without probenecid. The cells were pre-incubated with compound or buffer control at room temperature for 30 min. Capsaicin (Sigma) was then added to the cells. Compounds having antagonist activity against the human VR1 were identified by detecting differences in fluorescence when measured after capsaicin addition, compared with no compound buffer controls. Thus, for example, in the buffer control capsaicin addition results in an increase in intracellular calcium concentration resulting in fluorescence. A compound having antagonist activity blocks the capsaicin binding to the receptor, there is no signalling and therefore no increase in intracellular calcium levels and consequently lower fluorescence. pKb values are generated from the IC50 values using the Cheng-Prusoff equation.

T1 sequence (Q8NER1 whole entry): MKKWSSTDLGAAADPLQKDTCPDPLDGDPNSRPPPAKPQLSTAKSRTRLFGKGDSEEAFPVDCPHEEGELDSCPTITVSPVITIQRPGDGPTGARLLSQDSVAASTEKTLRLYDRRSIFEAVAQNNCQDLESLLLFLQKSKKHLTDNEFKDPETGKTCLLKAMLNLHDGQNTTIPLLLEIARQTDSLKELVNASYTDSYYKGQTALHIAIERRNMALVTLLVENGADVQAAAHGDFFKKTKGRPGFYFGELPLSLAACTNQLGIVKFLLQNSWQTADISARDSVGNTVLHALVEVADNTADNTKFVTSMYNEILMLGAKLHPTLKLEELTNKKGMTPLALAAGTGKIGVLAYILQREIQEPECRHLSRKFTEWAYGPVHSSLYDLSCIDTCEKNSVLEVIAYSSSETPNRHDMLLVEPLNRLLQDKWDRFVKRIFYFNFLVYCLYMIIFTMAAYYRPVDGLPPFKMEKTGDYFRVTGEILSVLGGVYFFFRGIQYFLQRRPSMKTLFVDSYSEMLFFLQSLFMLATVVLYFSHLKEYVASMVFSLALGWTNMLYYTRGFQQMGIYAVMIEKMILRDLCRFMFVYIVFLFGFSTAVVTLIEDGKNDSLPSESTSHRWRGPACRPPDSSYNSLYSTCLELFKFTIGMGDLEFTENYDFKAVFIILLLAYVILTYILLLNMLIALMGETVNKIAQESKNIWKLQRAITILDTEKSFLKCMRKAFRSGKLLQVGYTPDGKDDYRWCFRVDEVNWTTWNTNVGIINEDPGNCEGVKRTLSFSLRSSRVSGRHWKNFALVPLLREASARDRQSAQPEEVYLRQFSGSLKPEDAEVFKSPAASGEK

Kb, < 100 nM:
Cc1cc2c(NC(=O)N[C@@H]3CCN(Cc4cccc(Cl)c4)C3)cccc2cn1 [Example 14]
Cc1cc2c(NC(=O)N[C@@H]3CCN(Cc4cccc(C(F)(F)F)c4)C3)cccc2cn1 [Example 16]
Cc1cc2c(NC(=O)N[C@@H]3CCN(Cc4ccc(C(F)(F)F)cc4)C3)cccc2cn1 [Example 17]
Cc1nccc2c(NC(=O)NC3CN(Cc4ccccc4C(F)(F)F)C3)cccc12 [Example 22]
